Assay results reported in patent US20170326125A1, “MULTISUBSTITUTED AROMATIC COMPOUNDS AS INHIBITORS OF THROMBIN” (VERSEON CORPORATION, priority 2016, published 2017).

Biological target: T1, Human thrombin (Homo sapiens, UniProt P00734)
T1 construct: purchased Haematologic Technologies Inc
Assay: Inhibition of the protease activity of thrombin (chromogenic substrate S-2238)
Format: biochemical
Conditions: Table C; 3 nM thrombin, 125 μM S-2238, 10 min pre-incubation, RT

Row | SMILES | IC50 [µM]
1 | COc1ccc(CNc2nc(-c3cccnc3)nn2C(=O)Cc2ccccc2)cc1 [Cmpd 319, 1-(5-[(4-methoxyphenyl)methyl]amino-3-(pyridin-3-yl)-1H-1,2,4-triazol-1-yl)-2-phenylethan-1-one] | < 0.1
2 | COc1ccc(CNc2nc(-c3cccnc3)nn2C(=O)CC(C)C)cc1 [Cmpd 320, 1-(5-[(4-methoxyphenyl)methyl]amino-3-(pyridin-3-yl)-1H-1,2,4-triazol-1-yl)-3-methylbutan-1-one] | < 0.1
3 | COc1ccc(CNc2nc(-c3cccnc3)nn2C(=O)CCc2ccccc2)cc1 [Cmpd 321, 1-(5-[(4-methoxyphenyl)methyl]amino-3-(pyridin-3-yl)-1H-1,2,4-triazol-1-yl)-3-phenylpropan-1-one] | 0.1 to 1
4 | CCCC(=O)n1nc(-c2cccnc2)nc1NCc1ccc(OC)cc1 [Cmpd 322, 1-(5-[(4-methoxyphenyl)methyl]amino-3-(pyridin-3-yl)-1H-1,2,4-triazol-1-yl)butan-1-one] | < 0.1
5 | COc1ccc(CNc2nc(-c3cccnc3)nn2C(C)=O)cc1 [Cmpd 323, 1-(5-[(4-methoxyphenyl)methyl]amino-3-(pyridin-3-yl)-1H-1,2,4-triazol-1-yl)ethan-1-one] | 0.1 to 1
6 | CCC(=O)n1nc(-c2cccnc2)nc1NCc1ccc(OC)cc1 [Cmpd 324, 1-(5-[(4-methoxyphenyl)methyl]amino-3-(pyridin-3-yl)-1H-1,2,4-triazol-1-yl)propan-1-one] | 0.1 to 1
7 | CC(=O)n1nc(-c2cccnc2)nc1NCc1ccc(C)cc1 [Cmpd 325, 1-(5-[(4-methylphenyl)methyl]amino-3-(pyridin-3-yl)-1H-1,2,4-triazol-1-yl)ethan-1-one] | < 0.1
8 | Nc1nc(-c2cccnc2)nn1S(=O)(=O)c1ccccc1 [Cmpd 326, 1-(benzenesulfonyl)-3-(pyridin-3-yl)-1H-1,2,4-triazol-5-amine] | > 1
9 | O=S(=O)(c1ccccc1)n1nc(-c2cccnc2)nc1NCc1cccs1 [Cmpd 327, 1-(benzenesulfonyl)-3-(pyridin-3-yl)-N-(thiophen-2-ylmethyl)-1H-1,2,4-triazol-5-amine] | > 1
10 | Nc1nc(C(=O)N2CCOCC2)nn1S(=O)(=O)c1ccccc1 [Cmpd 328, 1-(benzenesulfonyl)-3-[(morpholin-4-yl)carbonyl]-1H-1,2,4-triazol-5-amine] | > 1
11 | CCS(=O)(=O)n1nc(C(=O)N2CCOCC2)nc1N [Cmpd 329, 1-(ethanesulfonyl)-3-[(morpholin-4-yl)carbonyl]-1H-1,2,4-triazol-5-amine] | > 1
12 | CSc1nc(-c2ccco2)nn1C(=O)c1ccccc1Cl [Cmpd 330, 1-[(2-chlorophenyl)carbonyl]-3-(furan-2-yl)-5-(methylsulfanyl)-1H-1,2,4-triazole] | < 0.1
13 | O=C(c1ccccc1Cl)n1nc(-c2ccco2)nc1NCc1ccc(F)cc1 [Cmpd 331, 1-[(2-chlorophenyl)carbonyl]-N-[(4-fluorophenyl)methyl]-3-(furan-2-yl)-1H-1,2,4-triazol-5-amine] | < 0.1
14 | O=C(c1ccccc1Cl)n1nc(-c2cccnc2)nc1NCc1ccc(F)cc1 [Cmpd 332, 1-[(2-chlorophenyl)carbonyl]-N-[(4-fluorophenyl)methyl]-3-(pyridin-3-yl)-1H-1,2,4-triazol-5-amine] | < 0.1
15 | COc1ccccc1C(=O)n1nc(-c2ccccc2)nc1N [Cmpd 334, 1-[(2-methoxyphenyl)carbonyl]-3-phenyl-1H-1,2,4-triazol-5-amine] | > 1
16 | O=S(=O)(c1ccc(Cl)cc1)n1nc(-c2cccnc2)nc1NCc1cccs1 [Cmpd 336, 1-[(4-chlorobenzene)sulfonyl]-3-(pyridin-3-yl)-N-(thiophen-2-ylmethyl)-1H-1,2,4-triazol-5-amine] | > 1
17 | Nc1nc(C(=O)N2CCOCC2)nn1S(=O)(=O)c1ccc(Cl)cc1 [Cmpd 337, 1-[(4-chlorobenzene)sulfonyl]-3-[(morpholin-4-yl)carbonyl]-1H-1,2,4-triazol-5-amine] | > 1
18 | O=C(c1ccc(Cl)cc1)n1nc(-c2cccnc2)nc1NCc1ccc(F)cc1 [Cmpd 338, 1-[(4-chlorophenyl)carbonyl]-N-[(4-fluorophenyl)methyl]-3-(pyridin-3-yl)-1H-1,2,4-triazol-5-amine] | < 0.1
19 | Cc1ccc(C(=O)n2nc(-c3cccnc3)nc2N)cc1 [Cmpd 339, 1-[(4-methylphenyl)carbonyl]-3-(pyridin-3-yl)-1H-1,2,4-triazol-5-amine] | 0.1 to 1

Next, values leading:

Row | IC50 [µM] | SMILES
20 | 0.1 to 1 | COc1ccc(CNc2nc(-c3cccnc3)nn2C(=O)c2ccco2)cc1 [Cmpd 340, 1-[(furan-2-yl)carbonyl]-N-[(4-methoxyphenyl)methyl]-3-(pyridin-3-yl)-1H-1,2,4-triazol-5-amine]
21 | > 1 | CCC(=O)n1nc(-c2ccco2)nc1SC [Cmpd 341, 1-[3-(furan-2-yl)-5-(methylsulfanyl)-1H-1,2,4-triazol-1-yl]propan-1-one]
22 | < 0.1 | CCCC(=O)n1nc(-c2cccnc2)nc1NCc1cccs1 [Cmpd 342, 1-[3-(pyridin-3-yl)-5-[(thiophen-2-ylmethyl)amino]-1H-1,2,4-triazol-1-yl]butan-1-one]
23 | < 0.1 | CC(=O)n1nc(-c2cccnc2)nc1NCc1cccs1 [Cmpd 343, 1-[3-(pyridin-3-yl)-5-[(thiophen-2-ylmethyl)amino]-1H-1,2,4-triazol-1-yl]ethan-1-one]
24 | > 1 | CCC(=O)n1nc(-c2ccc(F)cc2)nc1NCc1ccccc1 [Cmpd 345, 1-[5-(benzylamino)-3-(4-fluorophenyl)-1H-1,2,4-triazol-1-yl]propan-1-one]
25 | < 0.1 | O=C(Cc1ccccc1)n1nc(-c2ccco2)nc1NCc1ccccc1 [Cmpd 346, 1-[5-(benzylamino)-3-(furan-2-yl)-1H-1,2,4-triazol-1-yl]-2-phenylethan-1-one]
26 | < 0.1 | O=C(CCc1ccccc1)n1nc(-c2ccco2)nc1NCc1ccccc1 [Cmpd 347, 1-[5-(benzylamino)-3-(furan-2-yl)-1H-1,2,4-triazol-1-yl]-3-phenylpropan-1-one]
27 | < 0.1 | CCC(=O)n1nc(-c2ccco2)nc1NCc1ccccc1 [Cmpd 348, 1-[5-(benzylamino)-3-(furan-2-yl)-1H-1,2,4-triazol-1-yl]propan-1-one]
28 | < 0.1 | CC(C)C(=O)n1nc(-c2cccnc2)nc1NCc1ccccc1 [Cmpd 349, 1-[5-(benzylamino)-3-(pyridin-3-yl)-1H-1,2,4-triazol-1-yl]-2-methylpropan-1-one]
29 | < 0.1 | CC(C)CC(=O)n1nc(-c2cccnc2)nc1NCc1ccccc1 [Cmpd 350, 1-[5-(benzylamino)-3-(pyridin-3-yl)-1H-1,2,4-triazol-1-yl]-3-methylbutan-1-one]
30 | < 0.1 | CCC(=O)n1nc(-c2cccnc2)nc1NCc1ccccc1 [Cmpd 351, 1-[5-(benzylamino)-3-(pyridin-3-yl)-1H-1,2,4-triazol-1-yl]propan-1-one]
31 | < 0.1 | CCC(=O)n1nc(-c2cccs2)nc1NCc1ccccc1 [Cmpd 352, 1-[5-(benzylamino)-3-(thiophen-2-yl)-1H-1,2,4-triazol-1-yl]propan-1-one]
32 | < 0.1 | O=C(Cc1ccccc1)n1nc(-c2ccccc2)nc1NCc1ccccc1 [Cmpd 353, 1-[5-(benzylamino)-3-phenyl-1H-1,2,4-triazol-1-yl]-2-phenylethan-1-one]
33 | > 1 | O=C(CCc1ccccc1)n1nc(-c2ccccc2)nc1NCc1ccccc1 [Cmpd 354, 1-[5-(benzylamino)-3-phenyl-1H-1,2,4-triazol-1-yl]-3-phenylpropan-1-one]
34 | 0.1 to 1 | CCC(=O)n1nc(-c2ccccc2)nc1NCc1ccccc1 [Cmpd 355, 1-[5-(benzylamino)-3-phenyl-1H-1,2,4-triazol-1-yl]propan-1-one]
35 | < 0.1 | O=C(c1ccccc1)n1nc(-c2cccnc2)nc1NCc1ccc(F)cc1 [Cmpd 356, 1-benzoyl-N-[(4-fluorophenyl)methyl]-3-(pyridin-3-yl)-1H-1,2,4-triazol-5-amine]
36 | 0.1 to 1 | COc1ccc(CNc2nc(-c3cccnc3)nn2C(=O)c2ccccc2)cc1 [Cmpd 357, 1-benzoyl-N-[(4-methoxyphenyl)methyl]-3-(pyridin-3-yl)-1H-1,2,4-triazol-5-amine]
37 | < 0.1 | O=C(c1ccccc1)n1nc(-c2ccco2)nc1NCc1ccccc1 [Cmpd 358, 1-benzoyl-N-benzyl-3-(furan-2-yl)-1H-1,2,4-triazol-5-amine]
38 | < 0.1 | O=C(c1ccccc1)n1nc(-c2ccccc2)nc1NCc1ccccc1 [Cmpd 359, 1-benzoyl-N-benzyl-3-phenyl-1H-1,2,4-triazol-5-amine]
39 | > 1 | CS(=O)(=O)n1nc(C(=O)N2CCOCC2)nc1N [Cmpd 360, 1-methanesulfonyl-3-[(morpholin-4-yl)carbonyl]-1H-1,2,4-triazol-5-amine]
40 | < 0.1 | CC(C)C(=O)n1nc(-c2cccnc2)nc1NCc1ccco1 [Cmpd 361, 1-5-[(furan-2-ylmethyl)amino]-3-(pyridin-3-yl)-1H-1,2,4-triazol-1-yl-2-methylpropan-1-one]
41 | < 0.1 | CCCC(=O)n1nc(-c2cccnc2)nc1NCc1ccco1 [Cmpd 362, 1-5-[(furan-2-ylmethyl)amino]-3-(pyridin-3-yl)-1H-1,2,4-triazol-1-ylbutan-1-one]
42 | < 0.1 | CC(=O)n1nc(-c2cccnc2)nc1NCc1ccco1 [Cmpd 363, 1-5-[(furan-2-ylmethyl)amino]-3-(pyridin-3-yl)-1H-1,2,4-triazol-1-ylethan-1-one]
43 | 0.1 to 1 | CCC(=O)n1nc(-c2cccnc2)nc1NCc1ccco1 [Cmpd 364, 1-5-[(furan-2-ylmethyl)amino]-3-(pyridin-3-yl)-1H-1,2,4-triazol-1-ylpropan-1-one]
44 | > 1 | O=C(Nc1n[nH]c(-c2ccco2)n1)c1ccccc1F [Cmpd 365, 2-fluoro-N-[5-(furan-2-yl)-1H-1,2,4-triazol-3-yl]benzamide]
45 | < 0.1 | Cc1ccc(CNc2nc(-c3cccnc3)nn2C(=O)C(C)C)cc1 [Cmpd 366, 2-methyl-1-(5-[(4-methylphenyl)methyl]amino-3-(pyridin-3-yl)-1H-1,2,4-triazol-1-yl)propan-1-one]
46 | < 0.1 | COc1ccccc1C(=O)n1nc(-c2ccco2)nc1SC [Cmpd 367, 3-(furan-2-yl)-1-[(2-methoxyphenyl)carbonyl]-5-(methylsulfanyl)-1H-1,2,4-triazole]
